Measurements taken from patent US20090197938A1, “Polyphenol Type Compounds, Compositions Containing Same and Use Thereof for Preventing or Treating Diseases Involving Abnormal Cell Proliferation” (Fluofarma, priority 2005, published 2009).

What was measured:
cancer cells [1] = settings: cited from earlier work
DNA topoisomerase II = test: Inhibition of DNA topoisomerase II (decatenation); type: biochemical
Text: Inhibition of DNA Topoisomerase II

cancer cells [2] = test: Effect on cell proliferation at 24H and 48H; type: cell-based; settings: 24H and 48H (figure)
Text: (§1) FIG. 1 represents the effect of different concentrations of Castaline on apoptosis at 24H and 48 H and cell proliferation at 24H and 48H.
(§2) FIG. 2 represents the effect of different concentrations of Vescalene on apoptosis at 24H and 48 H and cell proliferation at 24H and 48H.
(§3) FIG. 3 represents the effect of different concentrations of Castalagine on apoptosis at 24H and 48H and cell proliferation at 24H and 48H.
(§4) FIG. 4 represents the effect of different concentrations of Acutissimine on apoptosis at 24H and 48H and cell proliferation at 24H and 48H.

cancer cells [3] = test: Pro-apoptotic activity (apoptosis at 24H and 48H); type: cell-based; settings: different concentrations, 24H and 48H (figure)
Text: as §1, §2, §3, §4

Substance | proliferation of cancer cells with subtoxic doses (background statement) (cancer cells [1]) | Inhibition of decatenation (%) (DNA topoisomerase II; compound concentration 1 μm) | Inhibition of decatenation (%) (DNA topoisomerase II; compound concentration 10 μm) | effect on cell proliferation with subtoxic doses (cancer cells [2]) | pro-apoptotic activity (cancer cells [3])
epiacutissamine B | stimulate the proliferation of cancer cells | – | – | – | –
epiacutissamine A | stimulate the proliferation of cancer cells | – | – | – | –
Castaline | – | 87.9% | 67.0% | does not increase cell proliferation in a noteworthy manner | has a pro-apototic activity
Vescalene | – | 78.8% | 97.3% | does not increase cell proliferation in a noteworthy manner | has a pro-apoptotic activity
Castalagine [reference compound] | stimulate the proliferation of cancer cells | – | – | increases cell proliferation | –
Vescaline | – | 95.5% | 100% | – | –
Acutissimine A [reference compound] | stimulate the proliferation of cancer cells | – | – | increases cell proliferation | –
acutissimine B | stimulate the proliferation of cancer cells | – | – | – | –
vescalagine | stimulate the proliferation of cancer cells | – | – | – | –
